Among the test systems are 786-0; A498; CAKI-1; CCRF-CEM; COLO 205; DLD-1; EKVX; Hs-578T; M14; MCF7; MOLT-4; Malme-3M; NCI-H226; NCI-H522; NCI/ADR-RES; OVCAR-8; RXF 393; SK-MEL-28; SK-MEL-2; U-251.
Common to all, as to test: DTP human tumour cell line panel, 48 h

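All cell lines were grown in 96-well plates and treated with compound for 48 hours. GI50 is the concentration that inhibits growth by half.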 Activity calls are given as the source filed them. No stated cut-off is given here; in the data, active = GI50 up to about 1.1 µM and inactive = higher.

A word on the GI50: it is the concentration at which growth is held to half of that of the control.

`C/C(=N\N)C(CN(C)C)C(c1ccccc1)c1c(O)c2ccccc2oc1=O` (centres undefined): the GI50 with 786-0 is > 100 µM (inactive); in the experiment with A498, > 100 µM (inactive); in the experiment on CAKI-1, > 100 µM (inactive); with CCRF-CEM, > 27 µM (inactive); with COLO 205, > 100 µM (inactive); with DLD-1, > 100 µM (inactive). The GI50 in the experiment on EKVX is > 70.8 µM (inactive); with Hs-578T, > 100 µM (inactive); with M14 it was > 100 µM (inactive); in the experiment with MCF7 it was > 100 µM (inactive); in the experiment on MOLT-4, > 55.5 µM (inactive); with Malme-3M, > 94.2 µM (inactive). For the same compound, the GI50 was > 100 µM (inactive) with NCI-H226; > 94.4 µM (inactive) in the experiment on NCI-H522; > 100 µM (inactive) in the experiment on NCI/ADR-RES; > 100 µM (inactive) in the experiment with OVCAR-8; > 55.6 µM (inactive) in the experiment with RXF 393; > 100 µM (inactive) in the experiment with SK-MEL-28. Also, the GI50 with SK-MEL-2 was > 100 µM (inactive); with U-251 it was > 87.1 µM (inactive).

Regarding `CC(=O)N/C(=C\c1cccc([N+](=O)[O-])c1)c1nc2ccc3c(c2[nH]1)C(=O)c1ccccc1C3=O`, the GI50 in the experiment with 786-0 was 27.2 µM (inactive); with A498, 22.8 µM (inactive); in the experiment on CAKI-1, 11.7 µM (inactive); in the experiment on CCRF-CEM it was 0.885 µM (active); with COLO 205, > 78.2 µM (inactive); with DLD-1, 12.2 µM (inactive). The GI50 in the experiment on EKVX was 12.7 µM (inactive); with M14 it was 70.3 µM (inactive); in the experiment on MOLT-4, 8.04 µM (inactive); with Malme-3M, > 74.8 µM (inactive); in the experiment with NCI-H226 it was > 100 µM (inactive); in the experiment with NCI-H522, 9.89 µM (inactive). Moreover, the GI50 with OVCAR-8 was 43.6 µM (inactive); in the experiment on RXF 393, 22.8 µM (inactive); in the experiment on SK-MEL-28 it was > 100 µM (inactive); in the experiment on SK-MEL-2 it was 50.2 µM (inactive); in the experiment with U-251, 45.6 µM (inactive).

For the compound `CC1(c2cccc3c2C2(O)C=CC4(CCC32)OCCO4)OCCO1` (centres undefined), the GI50 in the experiment with 786-0, in the experiment with A498, in the experiment on CAKI-1, in the experiment on CCRF-CEM, with COLO 205 and in the experiment on DLD-1 was > 100 µM (inactive) in each case. Besides, the GI50 with EKVX, in the experiment with M14, in the experiment with MOLT-4, with Malme-3M, in the experiment on NCI-H226 and with NCI-H522 was > 100 µM (inactive) throughout. In addition, the GI50 in the experiment with OVCAR-8, in the experiment with RXF 393, in the experiment with SK-MEL-28, in the experiment with SK-MEL-2 and in the experiment with U-251 was > 100 µM (inactive) throughout.

(Values after ChEMBL document CHEMBL1201862, “PubChem BioAssay data set” (2004).)
